Test results reported in patent US9593118B2, “Xanthine-substituted alkynyl carbamates/reverse carbamates as A2B antagonists” (Lewis and Clark Pharmaceuticals, Inc., priority 2015, dated 2017).

Molecular target: T1, A2B adenosine receptor (Homo sapiens, UniProt P29275)
T1 construct: An endogenous A2B adenosine receptor coupled to cyclic AMP generation in human embryonic kidney (HEK-293) cells; endogenous in cells
T1 sequence (P29275 1-332): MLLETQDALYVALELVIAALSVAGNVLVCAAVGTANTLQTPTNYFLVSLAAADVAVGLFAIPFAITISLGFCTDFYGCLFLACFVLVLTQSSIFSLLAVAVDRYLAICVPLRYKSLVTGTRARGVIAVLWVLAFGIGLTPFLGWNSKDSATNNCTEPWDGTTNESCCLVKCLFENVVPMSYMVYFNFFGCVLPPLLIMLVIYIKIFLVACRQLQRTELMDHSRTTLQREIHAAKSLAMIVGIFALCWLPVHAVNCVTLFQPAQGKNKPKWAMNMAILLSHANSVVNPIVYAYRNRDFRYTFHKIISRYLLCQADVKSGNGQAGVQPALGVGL
Assay: A2B antagonist cAMP assay (inhibition of the NECA response, HTRF)
Assay type: cell-based
Details: test compound at 1×10^−7M; percent inhibition of the control response to 1 μM NECA (cAMP)
Protocol: Representative compounds of the present invention have been tested for their activity as A2B antagonists and shown to be active. These values were obtained by using the following methodology.
The cells are suspended in HBSS buffer (Invitrogen) complemented with 20 mM HEPES (pH 7.4), then distributed in microplates at a density of 5×10^3 cells/well and preincubated for 5 min at room temperature in the presence of HBSS (basal control), the test compound or the reference antagonist. Thereafter, the reference agonist NECA is added at a final concentration of 1 μM. […] Following 10 min incubation at 37° C., the cells are lysed and the fluorescence acceptor (D2-labeled cAMP) and fluorescence donor (anti-cAMP antibody labeled with europium cryptate) are added. After 60 min at room temperature, the fluorescence transfer is measured at λex=337 nm and λem=620 and 665 nm using a microplate reader (Rubystar, BMG). The cAMP concentration is determined by dividing the signal measured at 665 nm by that measured at 620 nm (ratio). The results are expressed as a percent inhibition of the control response to 1 μM NECA. The standard reference antagonist is XAC, which is tested in each experiment at several concentrations to generate a concentration-response curve from which its IC50 value is calculated.
Reference: Cooper, J., Hill, S. J., and Alexander, S. P. H. (1997), An endogenous A2B adenosine receptor coupled to cyclic AMP generation in human embryonic kidney (HEK-293) cells, Brit. J. Pharmacol., 122: 546.

Compound | inhibition at 0.1 µM
CCCn1c(=O)n(C2CC2)c(=O)c2[nH]c(C#CCN(C)C(=O)Oc3ccc(F)cc3)nc21 [Example 2, 1-Cyclopropyl-3-propyl-8-(3-(methyl((4-fluorophenoxy)carbonyl)amino)prop-1-yn-1-yl)xanthine] | > 20%
CN(CC#Cc1nc2c([nH]1)c(=O)n(C1CC1)c(=O)n2C1CC1)C(=O)Oc1ccccc1Cl [Example 6, 8-(3-(((2-Chlorophenoxy)carbonyl)(methyl)amino)prop-1-yn-1-yl)-1,3-dicyclopropylxanthine] | > 5%
CN(C(=O)OCC#Cc1nc2c([nH]1)c(=O)n(C1CC1)c(=O)n2C1CC1)c1ccccc1 [Example 7, 1,3-Dicyclopropyl-8-(3-((methyl(phenyl)carbamoyl)oxy)prop-1-yn-1-yl)xanthine] | > 5%
CN(CC#Cc1nc2c([nH]1)c(=O)n(C1CC1)c(=O)n2C1CC1)C(=O)Oc1ccc(F)cc1 [Example 1, 1,3-Dicyclopropyl-8-(3-(methyl((4-fluorophenoxy)carbonyl)amino)prop-1-yn-1-yl)xanthine] | > 20%
COc1ccccc1OC(=O)N(C)CC#Cc1nc2c([nH]1)c(=O)n(C1CC1)c(=O)n2C1CC1 [Example 5, 1,3-Dicyclopropyl-8-(3-(methyl((2-methoxyphenoxy)carbonyl)amino)prop-1-yn-1-yl)xanthine] | > 5%
CN(CC#Cc1nc2c([nH]1)c(=O)n(C1CC1)c(=O)n2C1CC1)C(=O)Oc1cccc(C(F)(F)F)c1 [Example 4, 1,3-Dicyclopropyl-8-(3-(methyl((3-(trifluoromethyl)phenoxy)carbonyl)-amino)prop-1-yn-1-yl)xanthine] | > 5%
CN(CC#Cc1nc2c([nH]1)c(=O)n(C1CC1)c(=O)n2C1CC1)C(=O)Oc1ccccc1 [Example 3, 1,3-Dicyclopropyl-8-(3-(methyl(phenoxycarbonyl)amino)prop-1-yn-1-yl)xanthine] | > 5%
CN(C(=O)OCC#Cc1nc2c([nH]1)c(=O)n(C1CC1)c(=O)n2C1CC1)c1ccc(Cl)cc1 [Example 8, 8-(3-(((4-Chlorophenyl)(methyl)carbamoyl)oxy)prop-1-yn-1-yl)-1,3-dicyclopropylxanthine] | > 20%
